The values below come from article PMC2362735, “New semisynthetic vinca alkaloids: chemical, biochemical and cellular studies” (British Journal of Cancer, 1999).

In one data set the test system is tubulin. The experiment in a line: Taxol-induced tubulin polymerization, turbidity at 350 nm. It is filed as biochemical, calf. As to conditions: taxol-induced assembly, MES buffer pH 6.8, 37C; average of three independent measurements; read-out: Anti-tubulin effect, turbidity at 350 nm, IC50. From the text: (§1) The numerous antimitotic drugs already developed and therapeu- tically used for a large number of pathologies belong to different classes based on their chemical structure and other distinctive features. Antimitotic drugs usually target the tubulin/microtubule network of the cytoskeleton that is formed by assembly of cyto- plasmic tubulin dimers. The stability of the different microtubular structures varies considerably; some of their functions depend on their lability. The lability is augmented by the extreme sensitivity to various drugs. Several synthetic and natural compounds interact specifically with tubulin and/or microtubule, fundamentally destroying its dynamic character and leading to cell death. […] Because of their extensive clinical use, it is important to synthesize additional agents having at least the same biological activity. […] Nevertheless, it is unclear yet how the anti-calmodulin activity of these drugs is related to their desired and undesired pharmacological effects. […] The synthesis of the KAR derivatives are presented. […] Taxol, GTP and trifluoperazine were purchased from Sigma. All organic reagents for synthesis of the new compounds were obtained from Aldrich and were of the highest grade. All other chemicals were reagent grade commercial preparations. […] Tubulin was stored in 1 M sucrose, 10 mM sodium phosphate buffer, 0.5 mM magnesium chloride and 0.1 mM GTP, pH 7.0, at -80C and dialysed against the appropriate buffer before use. […] PFK, aldolase and glycerol-3-phosphate dehydrogenase- triosephosphate isomerase purified from rabbit skeletal muscle were purchased in ammonium sulphate suspensions from Sigma or Boehringer. The enzyme suspensions were centrifuged at 10 000g for 5 min. The pellets were suspended in the appropriate buffer, then the enzymes were gel filtered or dialysed in the same buffer to remove ammonium sulphate. […] (Figure 1B; R1 , CH3; R2 , CH2 CH2 Cl). […] After 2 h incubation at room temperature, 200 ml dried toluene was added to the reaction mixture. […] The mixture was stirred for 30 min. After separation of the organic phase, it was washed with water (3 x 30 ml) and dried with potassium sulphate and evaporated on a water bath of 35-40C at 20-27 hPa. The resulting material was chromatographed on silica gel (500 g, bead size of 0.040- 0.063 mm) column (30 mm x 500 mm) using ethyl acetate/ethanol (9:1) mixture as eluent. […] The mixture was kept for 4 h at room temperature and then evaporated on a water bath at 40C under a vacuum of 80 hPa to a final volume of 5-6 ml. […] (Figure 1B, R1 , CHO; R2 , CH2 CH2 Cl). […] Synthesis of KAR-4 [3-allyl-2,4-dioxo-3,5-spiro-oxazolidino- 4-deacetoxy-vinblastine] (Figure 1B; R1 , CH3; R2 , CH2 CH=CH2 ). […] NMR measurements were carried out on a Varian Unity plus-500 instrument (500 MHz for 1H and 125 MHz for 13C) in DMSO. Chemical shifts were determined relative to dTMS = 0.00 p.p.m. 1H and 13C signal assignments were verified by a concerted use of two-dimensional 1H-1H and 1H-13C shift correlation methods (DQFCOSY, HSQC, HMBC) and NOESY experiments. The gradient-enhanced DQFCOSY, HSQC, HMBC and NOESY experiments were recorded by using the standard spectrometer software package. A mixing time of tmix = 0.5 s was used for the NOESY experiments.

Data set [1] relates to Mouse Ehrlich ascites tumour cells. As to the kind of experiment: In vivo anti-tumour effect on Ehrlich ascites carcinoma, single i.p. dose 4 days after transplantation.
Description: as §1

Data set [2] has as its system Human neuroblastoma cell line (SH-SY5Y). The experiment in a line: Microculture tetrazolium assay (MTA), cytotoxicity. To be noted: read-out: Cytotoxicity MTA IC50, 4-day treatment, MTT.
Description: as §1

For data set [3], the system named is Mouse leukaemia P388 cells. Set-up: method as in Orosz et al (1997a). As to conditions: P388, single doses i.p.; data published also in ref Orosz et al (1997a); cited from earlier work.
[4] abbreviates: Table 2A, 40 mg kg-1 single dose i.p.
Where [5] appears, read: Table 2B, 20 mg kg-1 single dose i.p.
[6] abbreviates: Table 2B, 40 mg kg-1 single dose i.p.
The mark [7] stands for this setting: Table 2B, 60 mg kg-1 single dose i.p.
Where [8] appears, read: Table 2B, 80 mg kg-1 single dose i.p.

One may read the IC50 as the concentration that inhibits the measured activity by half. `CC[C@]1(O)C[C@@H]2CN(CCc3c([nH]c4ccccc34)[C@@](C(=O)OC)(c3cc4c(cc3OC)N(C)[C@@H]3[C@]45CCN4CC=C[C@@](CC)(C[C@@]36OC(=O)N(CCCl)C6=O)[C@H]45)C2)C1` [KAR-2, 3′-(β-chloroethyl)-2′,4′-dioxo-3,5′-spiro-oxazolidino-4-deacetoxy-vinblastine]: the IC50 in the data set on tubulin is 200 nM; in data set [2], 310 nM. For the same compound, in data set [1] (80 mg kg-1 single dose i.p., three mice per group), the “mortality of treated animals” value is reported as “The animals were dying in the same day of the sacrifice”. Besides, the “Cells ml-1 (per cent of control)” value is reported as 56 per cent of control in data set [1] (setting [4]); 63 per cent of control in data set [1] (setting [5]); 60 per cent of control in data set [1] (setting [6]); 46 per cent of control in data set [1] (setting [7]); 211 per cent of control in data set [1] (setting [8]). For the same compound, the “Total cells (per cent of control)” value is on record as 24 per cent of control in data set [1] (setting [4]); 46 per cent of control in data set [1] (setting [5]); 24 per cent of control in data set [1] (setting [6]); 29 per cent of control in data set [1] (setting [7]); 36 per cent of control in data set [1] (setting [8]). For the same compound, the “Volume of tumour per mouse” value in data set [1] (Table 2A, 40 mg kg-1 single dose i.p., sacrifice 8 days after implantation, control 5.33 ml) was 2.33 mL; in data set [1] (Table 2B, 20 mg kg-1 single dose i.p., control 2.67 ml), 1.97 mL; in data set [1] (Table 2B, 40 mg kg-1 single dose i.p., control 2.67 ml), 1.17 mL; in data set [1] (Table 2B, 60 mg kg-1 single dose i.p., control 2.67 ml), 1.70 mL; in data set [1] (Table 2B, 80 mg kg-1 single dose i.p., control 2.67 ml), 0.45 mL. Further, the “Dose (mg kg-1) giving the maximal effect” value in data set [3] was 60 mg/kg. The “Maximal effect T/C (%)” value in data set [3] is 207%.
